From ChEMBL document CHEMBL1201862, “PubChem BioAssay data set” (2004)
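In this assay, cells in 96-well plates receive the compound at five concentrations for 48 hours. Endpoints are linearly interpolated between the surrounding concentrations. Abbreviation: GI50, concentration required for 50% inhibition of growth.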 The source made the active and inactive calls. Rule as the data show it: active = GI50 up to about 1.1 µM and inactive = higher.

Columns and labels:
Test in all cases: NCI-60 cell line screen, 48 h
786-0 = tested on: 786-0
A549 = tested on: A549
CAKI-1 = tested on: CAKI-1
DU-145 = tested on: DU-145
HL-60 = tested on: HL-60
HT-29 = tested on: HT-29
M14 = tested on: M14
MDA-MB-231 = tested on: MDA-MB-231
MDA-N = tested on: MDA-N
SF-268 = tested on: SF-268
SF-295 = tested on: SF-295
SF-539 = tested on: SF-539
SK-MEL-2 = tested on: SK-MEL-2
SK-MEL-5 = tested on: SK-MEL-5
SNB-19 = tested on: SNB-19
SNB-75 = tested on: SNB-75
T47D = tested on: T47D
TK-10 = tested on: TK-10
UACC-257 = tested on: UACC-257

Measured: GI50

O=C(CCl)Nc1ccc(-c2nc3ccccc3s2)cc1
inactive: 786-0 2 µM | A549 10 µM | CAKI-1 1.74 µM | DU-145 10.4 µM | HL-60 1.91 µM | HT-29 2.39 µM | M14 1.97 µM | MDA-MB-231 3.07 µM | MDA-N 2.49 µM | SF-268 2.81 µM | SF-295 6.92 µM | SF-539 3.04 µM | SK-MEL-2 2.65 µM | SK-MEL-5 1.6 µM | SNB-19 2.4 µM | SNB-75 4.06 µM | T47D 1.53 µM | TK-10 15.7 µM | UACC-257 5.66 µM

CCOC(=O)COc1ccc(/C=C/C(=O)c2ccc(OC)cc2)cc1
inactive: 786-0 20.8 µM | A549 58.1 µM | CAKI-1 > 10 µM | DU-145 29.9 µM | HL-60 27 µM | HT-29 21.5 µM | M14 34.6 µM | MDA-MB-231 37.6 µM | MDA-N 26.7 µM | SF-268 22.3 µM | SF-295 29 µM | SF-539 19.6 µM | SK-MEL-2 27.7 µM | SK-MEL-5 > 10 µM | SNB-19 41.8 µM | SNB-75 65.3 µM | T47D 39.7 µM | TK-10 42 µM | UACC-257 23.1 µM

Clc1nc2n(c1/C=C/c1cccs1)CCS2
inactive: 786-0 20 µM | A549 34.5 µM | CAKI-1 18.8 µM | DU-145 28.6 µM | HL-60 6 µM | HT-29 24.3 µM | M14 38.7 µM | MDA-MB-231 6.41 µM | MDA-N 36.5 µM | SF-268 40.4 µM | SF-295 29.6 µM | SK-MEL-2 > 100 µM | SK-MEL-5 17.1 µM | SNB-19 43.6 µM | SNB-75 55 µM | T47D 17 µM | TK-10 36 µM | UACC-257 57.5 µM

O=[N+]([O-])/C(Cl)=C(\NCCN/C(C(Cl)=C(Cl)Cl)=C(/Cl)[N+](=O)[O-])C(Cl)=C(Cl)Cl
inactive: 786-0 31.6 µM | A549 45.2 µM | CAKI-1 > 100 µM | DU-145 > 100 µM | HL-60 25.6 µM | M14 61.1 µM | MDA-MB-231 52.1 µM | MDA-N 82.2 µM | SF-268 40.8 µM | SF-295 39.7 µM | SF-539 > 100 µM | SNB-19 92.9 µM | SNB-75 35.5 µM | T47D 51.2 µM | TK-10 71.4 µM

COc1ccc(/C=C2\N=C(c3ccccc3)N(C3Nc4cc5c(cc4S3)NC(N3C(=O)/C(=C/c4ccc(OC)cc4)N=C3c3ccccc3)S5)C2=O)cc1 (configuration not stated)
inactive: 786-0 28.1 µM | A549 36.8 µM | CAKI-1 > 100 µM | DU-145 50.5 µM | HL-60 33.2 µM | HT-29 46.2 µM | M14 > 100 µM | MDA-MB-231 > 100 µM | MDA-N 37.9 µM | SF-268 29.6 µM | SF-295 > 100 µM | SF-539 11.6 µM | SK-MEL-2 31.6 µM | SK-MEL-5 37.2 µM | SNB-75 22.5 µM | T47D 65.3 µM | TK-10 > 100 µM | UACC-257 > 100 µM

COc1cc2ccc1OCc1cccc(n1)COc1ccc(cc1OC)/C=N\CCNCCNCC/N=C\2
inactive: 786-0 > 100 µM | A549 > 100 µM | CAKI-1 > 100 µM | DU-145 > 100 µM | HL-60 53.5 µM | HT-29 > 100 µM | M14 > 100 µM | MDA-MB-231 > 100 µM | MDA-N > 100 µM | SF-268 > 100 µM | SF-539 > 100 µM | SK-MEL-2 > 100 µM | SK-MEL-5 > 100 µM | SNB-19 > 100 µM | SNB-75 > 100 µM | T47D > 100 µM | TK-10 > 100 µM | UACC-257 > 100 µM
